Series [1] in a line: 19F NMR solvolytic stability of difluoro-dioxaborinins in water/DMSO. It counts as physicochemical. The following applies: 5.55 M H2O. The method, then: Radioactive TLC and […]/^19F NMR studies were used to determine the solvolytic stability of difluoro-dioxaborinins.
Some difluoro-dioxaborinins are insoluble in water; therefore, solvolytic studies on these compounds were determined in 10% H2O/90% DMSO (5.55 M H2O, deionized). To relate the effect of water concentration to solvolysis, solvolytic studies on all water-soluble difluoro-dioxaborinins (DK-1, DK-2, DK-3, DK-6 and DK-15) were performed twice: once in 10% H2O/90% DMSO (5.55 M H2O) (FIG. 2A), and again in 90% H2O/10% DMSO (50 M H2O) (FIG. 2B). Studies performed in 50 M H2O reflect physiologically appropriate conditions, and allow comparison to literature aryl/alkyl trifluoroborate and dipyrromethene solvolytic stability measurements.^11, 14 Characterization in solutions with reduced water content, 5.55 M H2O, allows comparison of solvolytic rate constants to those of less-soluble difluoro-dioxaborinins. Difluorodioxaborinins solvolysis is not observed in pure (100%) DMSO.
The coefficient of determination (R^2) in all ^19F NMR solvolysis data closely follows single, 2 parameter exponential decay regression (f=a*exp(−k*x), R2 >0.99 in 88% of experiments).

The nature of series [2]: Optical properties (absorbance, fluorescence emission, quantum yield). It counts as physicochemical.
The subject of series [3] is sentinel (popliteal) lymph node. Briefly: Sentinel lymph node fluorescence imaging (IVIS) and histology in mouse. The format is in vivo. The method, then:
FIGS. 3A-F: Sentinel lymph node imaging using [^18F]-6F-Cur-BF2 according to the working examples. […] Distal lymph nodes (lumbar, iliac lymph nodes^30) are not observed. […] A 200 μCi dose of [^18F]-6F-Cur-BF2 and Magnevist (MRI contrast agent) were injected into the right rear paw of […]. The injection site (bottom arrow) and sentinel lymph node (popliteal, upper arrows) are visible at 5 min. FIGS. 3D-3F show popliteal (sentinel) lymph node imaging 2 hours post injection into the back paw with a Pre-Clinical IVIS. Optical/Computed Tomography In Vivo Imaging System (Excitation filter centered at 430 nm and emission filter centered at 520 nm. Exposure time=1 s). […] White arrows in FIGS. 3D-3F indicate the lymph nodes.
FIG. 5 provides the histology of the collected lymph node from the mouse in FIG. 4A. The mouse lymph node was collected at 2 hours post injection into the right, rear footpad. The collected lymph node was frozen with OCT Gel and cut with a thickness of […]. The slice was, imaged with fluorescence microscope at the channel of 6F-Cur-BF2.
Applicant attempted sentinel lymph node imaging with [^18F]-6FCur-BF2 by fluorescence with 430 nm excitation and 520 nm emission filters. […] The collected lymph node is confirmed in histology.

In the case of `COc1cc(/C=C/C2=CC(/C=C/c3ccc(OC(=O)c4c(F)cc(F)cc4F)c(OC)c3)=[O+][B-](F)(F)O2)ccc1OC(=O)c1c(F)cc(F)cc1F` [6F-Cur-BF2], in series [1], the “fold more rapid solvolysis than Cur-BF2” value is reported as 33 and the “fold slower solvolysis (more stable) than DK-1” value stood at 1.6. Also, in series [2], the Abs came to 430 nm, the Em turned out to be 512 nm, the “Extinction Coefficient” value is listed as 50,800 cm^−1M^−1 and the “Stokes Shift” value was found to be 82 nm. Besides, the Quantum yield in series [2] (Methanol) came out at 3.0%. Moreover, the “fluorescence in collected lymph node (histology)” value in series [3] (mouse lymph node collected 2 hours post injection) is on record as “observed in the lymph node”. Also, the “sentinel node visualization by fluorescence through the skin” value in series [3] (mouse, 430 nm excitation, 520 nm emission filters, 2 hours post injection) is recorded as “the sentinel node is difficult to visualize through the skin”.

These data come from patent US12378261B2, “One-step, fast, 18F-19F isotopic exchange radiolabeling of difluoro-dioxaborinins and use of such compounds in treatment” (CORNELL UNIVERSITY, priority 2018, dated 2025).
